In patent US9730906B2, “α-derivatives of cis-monounsaturated fatty acids for use as medicines” (UNIVERSITAT DE LES ILLES BALEARS, priority 2008, dated 2017):

Assays:
cyclooxygenase-2 (COX-2) = assay: Cellular concentration of COX-2 in U937 differentiated monocytes (immunoblot); format: cell-based, human; conditions: 250 μM, 6 hours; compared with fatty acids not of Formula I, p<0.05
Method: FIG. 19B. Effect of various fatty acids in the inhibition (concentration of protein) of cyclooxygenase-2 (immunoblot of COX-2). […] Cell cultures (U937 differentiated monocytes) were treated with the fatty acids of the invention (250 μM, 6 hours).
(§1) In an additional study on the release of various proinflammatory cytokines (IL-1b, IL-6, IL-8, IL-10) and TNF-α in U937 monocytes stimulated with bacterial lipopolysaccharide (LPS), a marked reduction in the levels of these molecules was observed after treatments with OHHD at a concentration of 250 μM and 72 h incubation (Table 4). The effect of the α-derivatives of cis-monounsaturated fatty acids (250 μM, 6 h) on the activity and expression of the COX-1 and COX-2 cyclooxygenases was investigated in the same system.

[1] = Rat obesity induced by cafeteria diet, preventative pre-treatment (Table 3); format: in vivo, Wistar Kyoto rats; conditions: 300 mg/kg oral, after two weeks on cafeteria diet; obese control 308 ± 17, lean control 280 ± 16; * lower than obese controls, ‡ indistinguishable
Method: In a further experiment, the effect of various molecules at a single dose (600 mg/kg) was investigated. […] In this sense, modification on the α-carbon and the double bond in cis configuration are crucial elements for producing the therapeutic effect indicated above. […] Finally, the effect of α-derivatives of cis-monounsaturated fatty acids on the prevention of obesity was investigated. For this, a model of rat obesity induced by a cafeteria diet, where the hypercaloric food increases the weight of the animals very markedly, was used. There were various experimental groups (see Table 3), each of which consisted of 6 female Wistar Kyoto rats of 250-300 g in weight. All the animals received a standard diet for 2 weeks. In addition, 2 of the groups received an oral preventative pre-treatment of vehicle and the other groups received 300 mg/kg of the fatty acids indicated below. Afterwards, one of the control groups was maintained on a standard diet (lean control) and the other was fed on a cafeteria diet (obese control). The treated animal groups were fed on the cafeteria diet. Preventative pre-treatment was maintained for all the groups. After two weeks on these diets, the lean control group had increased their body weight by an average of 16±16 g, while the obese control group had increased their body weight by an average of 43±17 g (statistically significance difference, p<0.01).
The weight of treated animals was statistically less than the weight of obese control rats and statistically indistinguishable from that of lean control rats.

[2] = system: A549 cells of human lung adenocarcinoma; assay: Prevention of tumour development in nude mice injected with A549 cells; format: in vivo; conditions: 400 mg/kg per day oral, 2 weeks before and one month after A549 injection, compared with fatty acids not of Formula I, p<0.05
Text: FIG. 2. Preventative effect of various fatty acids against tumour development. […] Animals received treatment before injection of tumour cells and the treatment was subsequently maintained. Animals of the control group were not treated and the volume of their tumours was taken as the reference value (100%).
To determine whether the fatty acids of the invention have applications in the prevention of the development of tumour processes, an animal cancer model was used. This model consisted of immune-deprived animals ([Crl:Nu(Ico)-Fox 1] nude mice in which non-microcytic human lung cancer cells were injected (5×10^6 A549 cells per animal). The control group (infected with cancer cells but untreated) started to develop tumours that were visible after a few days. The sizes of the tumours were measured for the first time at 10 days after implanting the tumour and measurements continued for up to 31 days after the implantation with a digital calliper. The volume of the tumours was calculated with the following equation: v=w^2×l/2 where v is the volume of the tumour, w is its width and l is the length. Preventative treatments against development of the cancer were applied. To carry out these treatments, 400 mg/kg were administered per day for 2 weeks before the injection of tumour cells. This treatment was continued for one month after the implantation of the tumour cells and the volume of the tumours in the animals was measured. Each experimental group was composed of 8 animals. Oral administration of α-derivatives of cis-monounsaturated fatty acids prevented cancer development (A549 cells of human lung adenocarcinoma) (FIG. 2). […] Therefore it was concluded that the introduction of a double bond in the cis configuration in the structure of the fatty acid is a critical factor in the prevention and treatment by fatty acids of cancer development.

[3] = target: T1, cyclooxygenases-1 (COX-1) (Homo sapiens, UniProt P23219); assay: COX-1 activity in U937 differentiated monocytes (Cayman COX-1 inhibitor screening system); format: cell-based; conditions: 250 μM, 6 hours; compared with fatty acids not of Formula I, p<0.05
T1 construct: endogenous in cells; host or cells: U937 differentiated monocytes
Method: FIG. 19A. Effect of various fatty acids in the inhibition of the activity of cyclooxygenases-1 (COX-1) (Cayman COX-1 inhibitor screening system). […] Cell cultures (U937 differentiated monocytes) were treated with the fatty acids of the invention (250 μM, 6 hours).
as §1

T1 sequence (P23219 24-599): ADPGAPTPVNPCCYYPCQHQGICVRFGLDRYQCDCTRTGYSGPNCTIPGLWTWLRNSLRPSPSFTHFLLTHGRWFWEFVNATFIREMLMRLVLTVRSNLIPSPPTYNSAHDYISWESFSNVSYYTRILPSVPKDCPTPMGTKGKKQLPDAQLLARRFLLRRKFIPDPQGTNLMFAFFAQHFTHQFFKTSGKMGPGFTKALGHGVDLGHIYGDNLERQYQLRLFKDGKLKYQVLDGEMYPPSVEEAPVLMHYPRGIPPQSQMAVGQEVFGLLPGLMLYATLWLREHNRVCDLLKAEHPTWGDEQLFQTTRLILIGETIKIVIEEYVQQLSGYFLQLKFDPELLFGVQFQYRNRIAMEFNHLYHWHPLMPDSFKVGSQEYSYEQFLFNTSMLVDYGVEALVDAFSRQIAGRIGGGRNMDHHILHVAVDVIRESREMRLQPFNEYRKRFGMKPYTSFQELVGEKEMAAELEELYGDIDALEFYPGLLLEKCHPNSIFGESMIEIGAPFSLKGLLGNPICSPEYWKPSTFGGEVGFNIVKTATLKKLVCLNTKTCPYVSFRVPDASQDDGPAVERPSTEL

Compound | cellular concentration of COX-2 (% of control) (cyclooxygenase-2 (COX-2)) | Final weight [1] | tumour volume (prevention of tumour development) [2] | inhibition of COX-1 activity (% of control) [3]
CCCCCCCC/C=C\CCCCCCC(N)C(=O)O (stereo not drawn) [AOD, α-Amino-cis-Δ9-octadecenoic] | more significant effect | 272 ± 15* g | more significant effect | more significant effect
CCCCCCCC/C=C\CCCCCCC(F)C(=O)O (stereo not drawn) [FOD, α-Fluoro-cis-Δ9-octadecenoic] | more significant effect | 279 ± 13* g | more significant effect | more significant effect
CCCCCCCC/C=C\CCCCCCC(C)C(=O)O (stereo not drawn) [MOD, α-Methyl-cis-Δ9-octadecenoic] | more significant effect | 268 ± 12* g | more significant effect | more significant effect
CCCCCCCC/C=C\CCCCCCCCCCC(O)C(=O)O (stereo not drawn) [OHDE, α-Hydroxy-cis-Δ13-docosenoic] | more significant effect | 273 ± 15* g | more significant effect | more significant effect
CCCCCCCC/C=C\CCCCCCCCC(O)C(=O)O (stereo not drawn) [OHEE, α-Hydroxy-cis-Δ11-eicosenoic] | more significant effect | 264 ± 11* g | more significant effect | more significant effect
CCCCCC/C=C\CCCCCCCCC(O)C(=O)O (stereo not drawn) [OHOD11, α-Hydroxy-cis-Δ11-octadecenoic] | more significant effect | 269 ± 12* g | more significant effect | more significant effect
CCCCCCC/C=C\CCCCCCCC(S)C(=O)O (stereo not drawn) [SHOD, α-Mercapto-cis-Δ10-octadecenoic] | more significant effect | 269 ± 16* g | more significant effect | more significant effect
CCCCCCCC/C=C\CCCCCCC(C(=O)O)C(F)(F)F (stereo not drawn) [TFMOD, α-Trifluoromethyl-cis-Δ9-octadecenoic] | more significant effect | 278 ± 14* g | more significant effect | more significant effect
